Test results reported in patent US12383628B2 (priority 2016, dated 2025).
Square brackets hold non-standard residues; d marks the D form. Peptide text beside a SMILES is read from it. Dmt = Cc1cc(O)cc(C)c1C[C@H](N)C(=O)O

Legend:
Male CD1 mice = test: Radiant heat tail-flick test of biogel compositions s.c. (in solution or as a gel); format: in vivo, mouse; settings: injection volume of 150 μl
Method: Male CD1 mice (6-8 weeks old, body weight average 30 g) were obtained from Charles River (Sulzfeld, Germany). Mice were group-housed in a temperature controlled room with a 12 h light/dark cycle and with free access to food and water. All animal studies were conducted in accordance with ethical guidelines and animal welfare standards according to Austrian regulations for animal research, and were approved by the Committee of Animal Care of the Austrian Federal Ministry of Science and Research. […]
The radiant heat tail-flick test was used to assess antinociceptive effects of tested drugs after s.c. administration in mice using an UB 37360 Ugo Basile analgesiometer (Ugo Basile s.r.l., Varese, Italy) as described previously (A. Novoa et al., 2012). The reaction time required by the mouse to remove its tail due to the radiant heat was measured and defined as the tail-flick latency. […] The antinociceptive response was expressed as percent of Maximum Possible Effect (% MPE)=[(TL-BL)/(cut-off time-BL)]×100. Data were analyzed with ANOVA using Tukey's multiple comparison test, and graphically processed with the GraphPad Prism Software (GraphPad Software Inc., San Diego, CA). […]

[1] = Stability and degradability of biogels in human plasma (Example 8); format: in vitro ADME; settings: human plasma, 37° C.
Method: After centrifugation at 14 000 rpm for 15 minutes, 100 μL supernatant was diluted with 100 μL milliQ water in the injection vial. Injection samples were vortexed for 5 seconds and were analyzed by HPLC. […] Calculations were performed using Microsoft® Office Professional 2010 Excel.

[2] = Peptide gelation (tilted tube / inverted vial test, minimum gelation concentration); format: physicochemical; settings: for Minimum gelation concentration: PBS 10 mM; for Minimum gelation concentration (w/v % in PBS): '/' = no gel
Summary of the method: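 TFA salt of peptide dissolved (1 or 2 mg per 100 μL) in PBS pH 7.4 or 0.9% NaCl saline, vortexed and sonicated, then left overnight at room temperature. Gelation judged by inverted vial test: no gravitational flow means gel. Rheology by dynamic rheometry at 37° C (G′, G″, tan δ).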

[3] = Dynamic rheometry of hydrogels (storage modulus G′); format: physicochemical; settings: 2% w/v in PBS, 37° C., value at 1 Hz
Method: Dynamic rheometry measurements were performed on an AR-G2 rheometer (TA Instruments) equipped with electrically heated plates and a 10 mm-diameter aluminium parallel plate-plate geometry. Viscoelastic properties were measured by oscillatory frequency sweeps at 37° C. in the range between 0.01 and 10 Hz, using a controlled strain of 0.05%. Hydrogel samples were made 12 h in advance. A ring-shaped reservoir filled with a saturated NH4Cl solution was used as a solvent trap.
To evaluate the mechanical properties of these hydrogels in a more quantitative manner, rheological experiments were performed. The viscoelastic properties of the peptide hydrogels were measured by dynamic rheometry at 37° C. This technique allowed to measure the storage modulus G′ (corresponding to the material's stiffness or rigidity), loss modulus G″ (corresponding to the viscous properties of the material) and loss factor tan (o) (ratio of G″ over G′).

[4] = TEM / cryo-TEM fibre morphology of hydrogels; format: physicochemical
Method: Formvar carbon-coated 400-mesh copper grids (Agar Scientific, Stansted, United Kingdom) were treated with plasma using an ELMO Glow discharge system to clean the grid surface and to render the carbon surface hydrophilic. Hydrogel samples were prepared 12 h in advance as described above. Small aliquots of sample (5 μL) were pipetted onto the carbon grids for adsorption. After 30 s, excess of sample was removed by using a Whatman 541 filter paper. The loaded grids were stained during 10 s with 1% uranyl formate after which the grids were air-dried. Samples were analysed using a JEOL JEM-1400 transmission electron microscope, operating at accelerating voltage of 120 kV. Images were recorded on a CMOS TemCam-F416 camera and accessory software of TVIPS.
200-mesh copper grids coated with perforated carbon film (Lacey carbon film: ProSci-Tech Old, Australia) were used and were glow discharged in nitrogen for 5 s immediately prior to use. Hydrogel samples were prepared 12 h in advance as described above. Small aliquots of sample (4 μL) were pipetted onto the carbon grids for adsorption. After 30 s, excess of sample was removed by using a Whatman 541 filter paper. The grid was then plunged into liquid ethane cooled by liquid nitrogen. Frozen grids were stored in liquid nitrogen until required. Samples were analysed using a Gatan 626 cryoholder and Tecnai 12 Transmission electron microscope, operating at accelerating voltage of 120 kV. Images were recorded using an FEI Eagle 4k×4k CCD camera.

[5] = system: L929 (mouse fibroblast) cells; test: Live/Dead cell viability assay on hydrogels (Example 5); format: cell-based; settings: 24 h on hydrogel
Method: L929 (mouse fibroblast) cells were obtained from ATCC® and maintained in Gibco®, MEM with GlutaMAX supplemented with 10% FBS (SAFC, Sigma), 1% Anti-Anti (100×, Gibco®) and 1% NEAA (100×, Gibco®). Cells were maintained on tissue culture treated polystyrene (TCPS) plates at 37° C. in a humified atmosphere containing 5% CO2 and 95% air. Cells were trypsinized, harvested and counted using a hemocytometer. The resulting cell suspension was diluted in Gibco® solution before addition to the hydrogels. For ease of handling and to produce homogeneous clear hydrogels, 100 μL of peptide hydrogels were prepared (in corresponding gelation conditions, see above) in Eppendorf tubes (0.5 ml) and transported using a 21G syringe to 96-well plates after simultaneously heating (60° C.) and mixing (900 rpm) using an Eppendorf ThermoMixer®. The hydrogels were left to set overnight in the wells at room temperature and were subsequently washed twice with 200 μL of Anti-Anti (100×, Gibco®) solution, 2 h each. After washing, media was removed and cells were seeded evenly over hydrogels. Cells were plated in duplicate on all hydrogels and control wells. Viability of cells on hydrogels was determined using the traditional Live/dead cell viability assay (Invitrogen) after culture durations of 24 h.
Plates were incubated in 5% CO2 at 37° C. for 1 day to allow cell attachment and spreading to occur. […]

[6] = after 4 days of incubation
Method: Human plasma was obtained from the Belgian Red Cross (Vlaams-Brabant, Leuven). […] Frozen (−20° C.) human plasma samples were thawed and thermostated to 37+2° C. Dissolution of the lyophilized peptide and consecutive dilutions were performed in water. […] On every time point 100 μL spiked plasma was transferred to a 500 μL Eppendorf tube and a protein crash was performed using 300 μL methanol+0.1% TFA (4° C.). Suspensions were vortexed for 15 seconds and placed at 4° C. for 30 to 45 minutes. After centrifugation at 14000 rpm for 20 minutes, 100 μL supernatant was diluted with 100 μL water in the injection vial. Injection samples were vortexed for 5 seconds and placed in the autosampler. […] Concentrations were calculated by use of the calibration curve and transferred to a semi-log chart presenting the log concentrations as a function of time. The optimum curve was used to calculate the peptide-half life. Calculations were performed using Microsoft® Office Professional 2010 Excel.

[7] = 37° C., 9 μM
Method: Human plasma was obtained from the Belgian Red Cross (Vlaams-Brabant, Leuven). Prior to the stability test, selectivity, stability of the compound in the injection solvent, linearity, accuracy and precision of the method were investigated. Frozen (−20° C.) human plasma samples were thawed and thermostated to 37±2° C. Dissolution of the lyophilized peptide and consecutive dilutions were performed in water. The resulting aqueous solutions of each peptide individually was spiked in human plasma (10:90 v/v) with final plasma concentrations of 9 μM.
On every time point 100 μL spiked plasma was transferred to a 500 μL Eppendorf tube and a protein crash was performed using the corresponding precipitation solvent (4° C.). Suspensions were vortexed for 15 s and placed at 4° C. for 30 to 45 min. After centrifugation at 18 625 g for 20 min, 100 μL supernatant was diluted with 100 μL water in the injection vial.
Injection samples were vortexed for 5 sand placed in the autosampler. […] Concentrations were calculated by use of the calibration curve and transferred to a semi-log chart presenting the log concentrations as a function of time. The optimum curve was used to calculate the peptide half-life. Calculations were performed using Microsoft® Office Professional 2010 Excel.

Row | Compound | Release profile as biogel in tail-flick test (Male CD1 mice) | Time at which degradation of the heptapeptide into the N-terminal pentapeptide started [1] | Time at which degradation of the pentapeptide into tripeptide was observed [1] | Time of appearance of the heptapeptide (loss of Phe-Lys-NH2) [1] | half-life at 14 μM ([1]; human, in solution, 14 μM) | Minimum gelation concentration ([2]; pH 7.4) | Minimum gelation concentration ([2]; pH 7.4 (text, Examples 1-2)) | Minimum gelation concentration (w/v % in PBS) [2] | Storage modulus G′ [3] | Fibre thickness ([4]; TEM, Example 2) | Cytotoxicity (Live/Dead cell viability, qualitative) [5] | Stability after incubation with human plasma [6] | Fibre diameter ([4]; cryoTEM and negative staining, Example 9) | Stability in human plasma [7]
1 | Cc1cc(O)cc(C)c1C[C@H](N)C(=O)N[C@H](CCCNC(=N)N)C(=O)N[C@@H](Cc1ccccc1)C(=O)N[C@@H](Cc1ccccc1)C(=O)N[C@@H](CCC(N)=O)C(=O)N[C@@H](Cc1ccccc1)C(=O)N[C@@H](CCC(N)=O)C(=O)N[C@@H](Cc1ccccc1)C(=O)N[C@@H](CCCCN)C(N)=O [CM-57, Dmt-DArg-Phe-Phe-Gln-Phe*-Gln-Phe-Lys-NH2] (H-[Dmt][dR]FFQFQFK-NH2; N-terminus assumed) | showed the desired sustained release curve | 7.5 min | 60 min | 2.5 min | ~17 min | – | – | – | – | – | – | – | – | –
2 | NCCCC[C@@H](NC(=O)[C@@H](Cc1ccccc1)NC(=O)[C@@H](CCC(N)=O)NC(=O)[C@@H](Cc1ccccc1)NC(=O)[C@@H](CCC(=O)O)NC(=O)[C@H](N)Cc1ccccc1)C(N)=O [peptide 4, H-DPhe-DGlu-DPhe*-DGln-DPhe-DLys-NH2] (H-[dF][dE][dF][dQ][dF][dK]-NH2) | – | – | – | – | – | 24 mM | 2 % w/v | 3 w/v % | ca. 1000 Pa | ca. 10 nm | evenly distributed number of red (dead cells) and green (live cells) fluorescent cells | remained intact | – | –
3 | NCCCC[C@@H](N)C(=O)N[C@H](Cc1ccccc1)C(=O)N[C@H](CCC(N)=O)C(=O)N[C@H](Cc1ccccc1)C(=O)N[C@H](CCC(=O)O)C(=O)N[C@H](Cc1ccccc1)C(N)=O [peptide 24, H-DLys-DPhe-DGln-DPhe*-DGlu-DPhe-NH2] (H-[dK][dF][dQ][dF][dE][dF]-NH2) | – | – | – | – | – | – | – | 2 w/v % | – | – | – | – | ~5 nm | remains intact after 25 h of incubation
